Measured values as given in patent US11412733B2, “Method for enhancing plant disease controlling effects of isofetamid and method for controlling plant diseases” (ISHIHARA SANGYO KAISHA, LTD., priority 2016, dated 2022).

Tests used:
Assay type in all cases: in vivo
Corynespora cassiicora [1] = assay: Test Example 7: residual effect against cucumber leaf spot; conditions: isofetamid 200 ppm + product 0.05 wt %, four-leaf stage, 1,000 L/ha; inoculation after 7 days
Description: Cucumber (cultivar: […] After the chemical solution dried, the cucumber was cultivated in a greenhouse for 7 days, and the cucumber was sprayed and inoculated with a suspension of conidia of Corynespora cassiicora, and kept under humidified chamber conditions at 23° C. for 24 hours. Thereafter, the cucumber was cultivated in a room at 20° C. under illumination for 7 days. The lesion area ratio on the first leaf was examined, and the control value was calculated based on the following formula. The obtained results are shown in Table 7. […] a: lesion area ratio in treated plot, b: lesion area ratio in non-treated plot

Corynesbora cassiicora [2] = assay: Test Example 3: curative effect against cucumber leaf spot; conditions: inoculated 24 hours before treatment; isofetamid 400 ppm + product 0.05 wt %, 1,000 L/ha; examined 7 days after inoculation
From the text: Cucumber (cultivar: […] The leaf was air-dried, and an isofetamid 400 ppm solution prepared by adding an aqueous solution (0.05 wt %) of each of products containing the component (b) as identified in Table 3 to isofetamid, was applied by means of a spray gun in an amount corresponding to 1,000 L/ha. […] a: lesion area ratio in treated plot, b: lesion area ratio in non-treated plot

Sphaerotheca fulidinea [3] = assay: Test Example 1: penetration effect against cucumber powdery mildew; conditions: isofetamid 400 ppm + product 0.05 wt %, leaf adaxial surface, 1,000 L/ha, abaxial inoculation after 4 days, No addition = without component (b)
Description: Cucumber (cultivar: Sagamihanjiro Fushinari) was cultivated in a polyethylene pot having a diameter of 7.5 cm, and when the cucumber reached 1.5-leaf stage, an isofetamid 400 ppm solution prepared by adding an aqueous solution (0.05 wt %) of each of products containing the component (b) as identified in Tables 1-1 to 1-6 to isofetamid, was applied to the leaf adaxial surface by means of a spray gun in an amount of 1,000 L/ha (20 ml/0.2 m^2). After the chemical solution dried, the cucumber was cultivated in a greenhouse for 4 days, the leaf abaxial surface was sprayed and inoculated with a suspension of conidia of Sphaerotheca fulidinea, and the cucumber was cultivated in a room at 22° C. under illumination for 7 to 8 days. The lesion area ratio on the abaxial surface of the first leaf was examined, and the control value was calculated based on the following formula. In Tables, “no addition” means the above treatment without adding the component (b) (the same applies hereinafter). Control value=(1−a/b)×100
(§1) a: lesion area ratio in treated plot, b: lesion area ratio in non-treated plot

Sphaerotheca fulidinea [4] = assay: Test Example 4: rainfastness against cucumber powdery mildew; conditions: isofetamid 200 ppm + product 0.05 wt %, 1,000 L/ha; after 2 days rainfall 40 mm per hour for one hour, then adaxial inoculation
Description: Cucumber (cultivar: […] After the chemical solution dried, the cucumber was cultivated in a greenhouse for 2 days, and rainfall treatment (rainfall intensity: 40 mm per hour) was carried out by means of an artificial rainfall apparatus for one hour, and after drying, the leaf adaxial surface was sprayed and inoculated with a suspension of conidia of Sphaerotheca fulidinea, and the cucumber was cultivated in a room at 20° C. under illumination for 7 days. The lesion area ratio on the adaxial surface of the first leaf was examined, and the control value was calculated based on the following formula. […] a: lesion area ratio in treated plot, b: lesion area ratio in non-treated plot

Sphaerotheca fulidinea [5] = assay: Test Example 6: penetration effect against cucumber powdery mildew; conditions: isofetamid 400 ppm + product 0.025 wt %, leaf adaxial surface, 1,000 L/ha; abaxial inoculation after 4 days
From the text: Cucumber (cultivar: Sagamihanjiro Fushinari) was cultivated in a polyethylene pot having a diameter of 7.5 cm, and when the cucumber reached 1.5-leaf stage, an isofetamid 400 ppm solution prepared by adding an aqueous solution (0.025 wt %) of each of products containing the component (b) as identified in Table 6 to isofetamid was applied to the leaf adaxial surface by means of a spray gun in an amount corresponding to 1,000 L/ha. The cucumber was cultivated in a greenhouse for 4 days, and then the leaf abaxial side was sprayed and inoculated with a suspension of conidia of Sphaerotheca fulidinea, and the cucumber was cultivated in a room at 22° C. under illumination for 7 days. The lesion area ratio on the abaxial side of the first leaf was examined, and the control value was calculated based on the following formula. Control value=(1−a/b)×100
as §1

Corynesbora cassiicora [6] = assay: Test Example 2: penetration effect against cucumber leaf spot; conditions: isofetamid 400 ppm + product 0.05 wt %, leaf adaxial surface, 1,000 L/ha; abaxial inoculation after 4 days; examined 7 days after inoculation
From the text: Cucumber (cultivar: Natsusuzumi) was cultivated in a polyethylene pot having a diameter of 7.5 cm, and when the cucumber reached 1.5-leaf stage, an isofetamid 400 ppm solution prepared by adding an aqueous solution (0.05 wt %) of each of products containing the component (b) as identified in Table 2 to isofetamid, was applied to the leaf adaxial surface by means of a spray gun in an amount corresponding to 1,000 L/ha. The cucumber was cultivated in a greenhouse for 4 days, and the leaf abaxial surface was sprayed and inoculated with a suspension of conidia of Corynesbora cassiicora, and the cucumber was kept under humidified chamber conditions at 23° C. for 24 hours. Thereafter, the cucumber was kept in a thermostatic chamber at 20° C., and 7 days after the inoculation, the lesion area ratio on the first leaf was examined, and the control value was calculated based on the following formula. Control value=(1−a/b)×100

Corynespora cassiicora [7] = assay: Test Example 5: penetration effect against cucumber leaf spot with different surfactant concentrations; conditions: isofetamid 200 ppm without component (b); abaxial inoculation after 3 days
Description: Cucumber (cultivar: […] The cucumber was cultivated in a greenhouse for 3 days, and the leaf abaxial side was sprayed and inoculated with a suspension of conidia of Corynespora cassiicora, and the cucumber was kept under humidified chamber conditions at 23° C. for 24 hours. […] a: lesion area ratio in treated plot, b: lesion area ratio in non-treated plot

Cc1cc(OC(C)C)ccc1C(=O)C(C)(C)NC(=O)c1sccc1C [No addition, isofetamid]
Control value (Corynespora cassiicora [1]): 80 | Control value (Corynesbora cassiicora [2]): 0 | Control value (Sphaerotheca fulidinea [3]; Table 1-1): 0 | Control value (Sphaerotheca fulidinea [3]; Table 1-2): 6 | Control value (Sphaerotheca fulidinea [3]; Table 1-3): 4 | Control value (Sphaerotheca fulidinea [3]; Table 1-4): 11 | Control value (Sphaerotheca fulidinea [3]; Table 1-5): 14 | Control value (Sphaerotheca fulidinea [3]; Table 1-6): 68 | Control value (Sphaerotheca fulidinea [4]): 62 | Control value (Sphaerotheca fulidinea [5]): 54.6 | Control value (Corynesbora cassiicora [6]): 68 | Control value (Corynespora cassiicora [7]): 66.7
